From patent US3993771A (priority 1974, dated 1976)
≈ marks a conversion by molar mass, not a printed value. Read-outs that look alike come from different tables or passages of the source.

Experiments:
[1] = tested on: rice plants (var.: Kinki No. 33); conditions: preventive test
[2] = tested on: Pyricularia oryzae; type: in vivo; conditions: preventive
[3] = tested on: Pyricularia oryzae; assay: microbe, parasite or virus in culture; type: cell-based; conditions: for Diameter of mycelium / Diameter of mycelium (symbol): 27° C., 2 weeks; for Diameter of mycelium: untreated 63.5 m/m; for MIC: Pyricularia oryzae, 336 h, read-out: MIC (minimum inhibitory concentration on mycelial growth)
[4] = tested on: Pyricularia oryzae; type: in vivo; conditions: curative
[5] = concentration of active ingredient 100 ppm
[6] = concentration of active ingredient 200 ppm
[7] = concentration of active ingredient 500 ppm
[8] = concentration of active ingredient 20 ppm

| SMILES | Phytotoxicity ([1]; 100 ppm) | Disease control [2, 5] [%] | Disease severity [2, 5] [%] | Diameter of mycelium ([3]; 2 ppm) [m/m] | Diameter of mycelium ([3]; 10 ppm) [m/m] | Diameter of mycelium ([3]; 50 ppm) [m/m] | Diameter of mycelium ([3]; 250 ppm) [m/m] | MIC [3] [µg/mL] | Disease control [4, 6] [%] | Disease severity [4, 6] [%] | Diameter of mycelium (symbol) ([3]; 2 ppm) | Phytotoxicity ([1]; 500 ppm) | Disease control [2, 7] [%] | Disease severity [2, 7] [%] | Disease control [4, 7] [%] | Disease severity [4, 7] [%] | Diameter of mycelium (symbol) ([3]; 250 ppm) | Disease control [4, 8] [%] | Disease severity [4, 8] [%] |
| --- | --- | --- | --- | --- | --- | --- | --- | --- | --- | --- | --- | --- | --- | --- | --- | --- | --- | --- | --- |
| CC(C)OP(=O)(OC(C)C)SCc1ccccc1 [Commercial fungicide A, 0,0-diisopropyl-S-benzylphosphorothioate, reference compound] | no | 92 | 7.5 |  |  |  |  |  |  |  |  |  |  |  |  |  |  |  |  |
| CC1CC(=Cc2ccccc2Br)C(=O)O1 (stereo not shown) [Compound 7] | no | 100 | 0 | 0 | 0 | 0 | 0 | < 2 | 100 | 0 |  |  |  |  |  |  |  |  |  |
| CCC1CC(=Cc2ccccc2Cl)C(=O)O1 (stereo not drawn) [Compound 9, α-(o-chlorobenzylidene)-γ-ethyl-γ-butyrolactone] | no | 99 | 1.3 |  | 0 | 0 | 0 | ~2 (≈ 8.45 µM) | 99 | 1.3 | ± |  |  |  |  |  |  |  |  |
| C=C1CCOC1=O [Control (i), reference compound] |  |  |  |  |  |  |  |  |  |  |  | no | 0 | 100 |  |  |  |  |  |
| Cc1ccccc1C=C1CC(C)(C)OC1=O [Compound 12, α-(o-methylbenzylidene)-γ-dimethyl-γ-butyrolactone] | no | 97 | 2.5 | 2.0 | 0 | 0 | 0 | 2 (≈ 9.25 µM) |  |  |  |  |  |  |  |  |  |  |  |
| O=C1OCCC1=Cc1c(Cl)cccc1Cl [Compound 2, α-(2,6-dichlorobenzylidene)-γ-butyrolactone] | no | 100 | 0 | 0 | 0 | 0 | 0 | < 2 |  |  |  |  |  |  |  |  |  |  |  |
| Cc1ccccc1C=C1CC(C)OC1=O (stereo not shown) [Compound 5] | no | 99 | 1.3 |  | 0 | 0 | 0 | ~2 (≈ 9.89 µM) | 100 | 0 | ± |  |  |  |  |  |  |  |  |
| CC1CC(=Cc2c(Cl)cccc2Cl)C(=O)O1 (stereo not shown) [Compound 8] | no | 100 | 0 | 0 | 0 | 0 | 0 | < 2 |  |  |  |  |  |  |  |  |  |  |  |
| Cc1cccc(C)c1C=C1CCOC1=O [Compound 4] | no | 99 | 1.3 | 0 | 0 | 0 | 0 | < 2 |  |  |  |  |  |  |  |  |  |  |  |
| CC1CC(=Cc2ccccc2)C(=O)O1 (stereo not shown) [Control (ix), reference compound] |  |  |  |  |  |  |  |  |  |  |  | no | 10 | 90.0 |  |  |  |  |  |
| O=C1OCCC1=Cc1ccc(Cl)cc1 [Control (vi), reference compound] |  |  |  | 66.0 | 51.5 | 34.5 | 3.0 | 250 (≈ 1200 µM) |  |  |  | no | 0 | 100.0 | 0 | 100.0 |  |  |  |
| O=C1OCCC1=Cc1ccccc1O [Control (iii), reference compound] |  |  |  | 65.0 | 55.0 | 40.0 | 11.0 | > 250 |  |  |  | no | 10 | 90.0 | 0 | 97.5 |  |  |  |
| CC1CC(=Cc2ccccc2C(C)C)C(=O)O1 (stereo not shown) [Compound 13] | no | 100 | 0 |  | 0 | 0 | 0 | ~2 (≈ 8.68 µM) | 99 | 1.3 | ± |  |  |  |  |  |  |  |  |
| CC1(C)CC(=Cc2ccccc2Cl)C(=O)O1 [Compound 11] | no | 99 | 1.3 |  | 0 | 0 | 0 | ~2 (≈ 8.45 µM) |  |  | ± |  |  |  |  |  |  |  |  |
| O=C1OCCC1=Cc1ccc([N+](=O)[O-])cc1 [Control (v), reference compound] |  |  |  | 69.5 | 58.5 | 43.0 | 30.5 | > 250 |  |  |  | no | 0 | 100.0 |  |  |  |  |  |
| O=C1OCCC1=Cc1ccccc1 [Control (ii), reference compound] |  |  |  | 68.5 | 49.0 | 35.5 |  | ~250 (≈ 1440 µM) |  |  |  | no | 7 | 93.8 | 0 | 97.5 | ± |  |  |
| CC1CC(=Cc2c(F)cccc2Cl)C(=O)O1 (stereo not drawn) [Compound 3, α-(2-chloro-6-fluorobenzylidene)-γ-valerolactone] | no | 100 | 0 | 0 | 0 | 0 | 0 | < 2 | 100 | 0 |  |  |  |  |  |  |  |  |  |
| CC1CC(=Cc2ccccc2Cl)C(=O)O1 (stereo not drawn) [Compound 6, α-(o-chlorobenzylidene)-γ-valerolactone] | no | 100 | 0 | 0 | 0 | 0 | 0 | < 2 | 100 | 0 |  |  |  |  |  |  |  |  |  |
| C[C@H]1O[C@H](OC2[C@@H](O)[C@@H](O)C(O)[C@H](O)[C@H]2O)[C@@H](N)C[C@@H]1N=C(N)C(=O)O.Cl (stereo partly shown) [Commercial fungicide B, Kasugamycin hydrochloride, reference compound] |  |  |  |  |  |  |  |  |  |  |  |  |  |  |  |  |  | 82 | 17.5 |
| CC(C)(C)C1CC(=Cc2ccccc2Cl)C(=O)O1 (stereo not shown) [Compound 10] | no | 99 | 1.3 |  | 0 | 0 | 0 | ~2 (≈ 7.55 µM) |  |  | ± |  |  |  |  |  |  |  |  |
